We go through 51 compounds from publication PMC8123576 (International Journal of Molecular Sciences, 2021).

One assay concerns A. flavus. In words: microbe, parasite or virus in culture. The class given is cell-based, Aspergillus flavus.
Assay [1] deals with aflatoxin accumulation by A. flavus. In words: microbe, parasite or virus in culture. The class given is cell-based, Aspergillus flavus.
Where [2] appears, read: Aspergillus flavus, 100 µM, read-out: G.I. (%) (A. flavus growth inhibition).
Setting [3] is: Aspergillus flavus, read-out: A.I. (%) (aflatoxin accumulation inhibition).

Turning to `NC(=S)NN=Cc1cccc(O)c1O` [2,3‐dihydroxybenzaldehyde thiosemicarbazone], in the assay with A. flavus (50 µM), the “G.I. (%) (A. flavus growth inhibition)” value is reported as 53,0%. Regarding `CC(=O)c1ccco1` [2-acetyl-furan], the “activity of parent compounds on aflatoxin biosynthesis” value in assay [1] was “fundamentally inactive”.

Turning to `CC(=O)c1cccs1` [2-acetyl-thiophene], the “activity of parent compounds on aflatoxin biosynthesis” value in assay [1] is “fundamentally inactive”.

In the case of `CC(=NNC(N)=S)c1ccco1` [2-acfurTS, 2-acetylfuranthiosemicarbazone], the “maximum aflatoxin accumulation inhibition” value in assay [1] is recorded as ≤ 28.7%. In addition, the “impact on fungal growth” value in the assay with A. flavus (10 to 100 µM, complexes compared with their ligand) is recorded as “modest inhibitory activity”. On to `CCCCCC=CC=NNC(N)=S` [2‐Octenal thiosemicarbazone], for which the entries for the “G.I. (%) (A. flavus growth inhibition)” value in the assay on A. flavus (50 µM) and in the assay on A. flavus (100 µM) were 93,0% and 96,0%, respectively. Take `O=C1c2ccccc2C(=O)c2cc(CO)ccc21` [2‐hydroxymethyl‐anthraquinone]: the “G.I. (%) (A. flavus growth inhibition)” value in the assay on A. flavus (100 µM) is recorded as 62,0%. In the case of `CC(C)c1ccccc1C=NNC(N)=S` [2‐isopropylbenzaldehyde thiosemicarbazone], the entries for the “A.I. (%) (aflatoxin accumulation inhibition)” value in assay [1] (50 µM) and in assay [1] (100 µM) were 67,0% and 97,0%, respectively. For `NC(=S)NN=CCCc1ccccc1` [3‐Phenylpropanal thiosemicarbazone], the “G.I. (%) (A. flavus growth inhibition)” value with A. flavus (50 µM) is recorded as 100%; in the assay with A. flavus (100 µM), 107,0%. For `CC(C)c1cccc(C=NN(C)C(N)=S)c1` [3‐isopropyl benzaldehyde‐2‐methyl‐thiosemicarbazone], the “A.I. (%) (aflatoxin accumulation inhibition)” value in assay [1] (100 µM) is 62,7%. Further, in the assay with A. flavus (100 µM), the “G.I. (%) (A. flavus growth inhibition)” value is on record as 70,6%. Turning to `CCC(/C=C/c1ccc(OC)cc1)=NNC(N)=S` [(E)‐1‐(4‐methoxyphenyl)‐1‐pentene‐3‐one‐3‐thiosemicarbazone], the entries for the “G.I. (%) (A. flavus growth inhibition)” value in the assay on A. flavus (50 µM) and in the assay on A. flavus (100 µM) were 62,0% and 74,0%, respectively. Take `NC(=S)NN=C(c1ccccc1)c1ccccc1` [Benzophenone thiosemicarbazone]: the inhibition (commonly the percentage by which the read-out fell short of the control) at 100 µM in the assay with A. flavus (setting [2]) stood at 53%. On to `CC12CCC(C(=NNC(N)=S)C1=NNC(N)=S)C2(C)C` (centres unmarked) [Camphorquinone bis thiosemicarbazone], for which the “G.I. (%) (A. flavus growth inhibition)” value in the assay on A. flavus (100 µM) is given as 58,0%. With `NC(=S)N/N=C\C=C\c1ccccc1` [Cinnamaldehyde thiosemicarbazone], in assay [1] (setting [3]), the inhibition at 50 µM came out at 73.1% and the inhibition at 100 µM worked out at 79%. Moreover, the inhibition at 100 µM with A. flavus (setting [2]) was determined as 56%. In the case of `CC(C)=CCC/C(C)=C/C=N/NC(N)=S` [Citral thiosemicarbazone], the “G.I. (%) (A. flavus growth inhibition)” value in the assay on A. flavus (100 µM) was 57,0%.

Regarding `NC(=S)NN=C1CCCCC1` [Cyclohexanone thiosemicarbazone], the results for the “G.I. (%) (A. flavus growth inhibition)” value in the assay with A. flavus (50 µM) and in the assay on A. flavus (100 µM) were 80,0% and 95,0%, respectively. Take `CCCCCCCCCC=NNC(N)=S` [Decanal thiosemicarbazone]: the “A.I. (%) (aflatoxin accumulation inhibition)” value in assay [1] (100 µM) was 62,0%. In addition, the “G.I. (%) (A. flavus growth inhibition)” value in the assay on A. flavus (50 µM) and with A. flavus (100 µM) was 96,0% each time. For `CCCCCC1=C(C)CCC1=NNC(N)=S` [Dihydrojasmone thiosemicarbazone], the “A.I. (%) (aflatoxin accumulation inhibition)” value in assay [1] (50 µM) is reported as 51,5%; in assay [1] (100 µM) it was 63,2%.

With `NC(=S)NN=c1cc(-c2ccccc2)oc2ccccc12` [Flavone thiosemicarbazone], the “G.I. (%) (A. flavus growth inhibition)” value in the assay with A. flavus (50 µM) and in the assay with A. flavus (100 µM) was 100% in each case. Turning to `O=c1cc(-c2ccccc2)oc2ccccc12` [Flavone], in the assay on A. flavus (Aspergillus flavus, 50 µM, read-out: G.I. (%) (A. flavus growth inhibition)), the inhibition at 50 µM turned out to be 66%. Further, the inhibition at 100 µM in the assay on A. flavus (setting [2]) was determined as 83%. Regarding `CCC=CCC1=C(C)CCC1=NNC(N)=S` [Jasmone thiosemicarbazone], the “A.I. (%) (aflatoxin accumulation inhibition)” value in assay [1] (50 µM) was 88,0%; in assay [1] (100 µM) it was 90,0%. With `CCCCCCCCC=NNC(N)=S` [Nonanal thiosemicarbazone], the figures for the “A.I. (%) (aflatoxin accumulation inhibition)” value in assay [1] (50 µM) and in assay [1] (100 µM) were 91,0% and 100%, respectively. In addition, the entries for the “G.I. (%) (A. flavus growth inhibition)” value in the assay with A. flavus (50 µM) and in the assay with A. flavus (100 µM) were 95,0% and 100%, respectively. With `CCCCCCCC=NNC(N)=S` [Octanal thiosemicarbazone], the “A.I. (%) (aflatoxin accumulation inhibition)” value is recorded as 76,0% in assay [1] (50 µM) and 96,0% in assay [1] (100 µM). The figures for the “G.I. (%) (A. flavus growth inhibition)” value in the assay on A. flavus (50 µM) and in the assay with A. flavus (100 µM) were 82,0% and 93,0%, respectively. On to `C=C(C)C1CC=C(C=NNC(N)=S)CC1` (centres unmarked) [Perillaldehyde thiosemicarbazone], for which the “A.I. (%) (aflatoxin accumulation inhibition)” value in assay [1] (50 µM) is listed as 78,0%; in assay [1] (100 µM), 87,3%. The “G.I. (%) (A. flavus growth inhibition)” value in the assay with A. flavus (100 µM) was 73,5%. In the case of `Cc1ccc(S(=O)(=O)OCc2ccc3c(c2)C(=O)c2ccccc2C3=O)cc1` [Tosylate ‐2‐methyleneanthraquinone], the “G.I. (%) (A. flavus growth inhibition)” value with A. flavus (50 µM) is recorded as 66,0%; with A. flavus (100 µM), 87,0%. `CCCCCCCCCCC=NNC(N)=S` [Undecanal thiosemicarbazone]: the figures for the “A.I. (%) (aflatoxin accumulation inhibition)” value in assay [1] (50 µM) and in assay [1] (100 µM) were 72,0% and 93,0%, respectively. Further, the “G.I. (%) (A. flavus growth inhibition)” value is on record as 78,0% with A. flavus (50 µM) and 62,0% in the assay with A. flavus (100 µM). `CN(C)C(=S)NN=CC=Cc1ccccc1.CN(C)C(=S)NN=CC=Cc1ccccc1.[Zn+2]` [Zn(II) Cinnamaldehyde bis 4,4‐dimethyl thiosemicarbazonate]: the “A.I. (%) (aflatoxin accumulation inhibition)” value in assay [1] (50 µM) is given as 75,0%; in assay [1] (100 µM), 100%. Take Acetylthiophene bisthiosemicarbazone: the “G.I. (%) (A. flavus growth inhibition)” value in the assay on A. flavus (100 µM) is given as 65,0%. For Bisvanillin thiosemicarbazone, the “A.I. (%) (aflatoxin accumulation inhibition)” value in assay [1] (100 µM) is given as 61,0%. In addition, the “G.I. (%) (A. flavus growth inhibition)” value in the assay on A. flavus (100 µM) is listed as 57,0%. As to “Cu(I) chloroaqua flavone thiosemicarbazone”, the “G.I. (%) (A. flavus growth inhibition)” value in the assay with A. flavus (50 µM) is reported as 60,0%; with A. flavus (100 µM), 79,0%.

Take “Cu(II) 1‐(3‐methoxyphenyl)heptan‐1‐one bisthiosemicarbazonate”: the “A.I. (%) (aflatoxin accumulation inhibition)” value is on record as 82,5% in assay [1] (50 µM) and 95,2% in assay [1] (100 µM).

On to “Cu(II) 1‐isopropylbenzaldehyde bisthiosemicarbazonate”, for which the “A.I. (%) (aflatoxin accumulation inhibition)” value in assay [1] (100 µM) is 73,5%. As for “Cu(II) 2,3,4‐trimethoxybenzaldehyde bisthiosemicarbazonate”, in the assay on A. flavus (50 µM), the “G.I. (%) (A. flavus growth inhibition)” value is on record as 55,0%. Regarding “Cu(II) 2,4‐decadienal bisthiosemicarbazonate”, the “G.I. (%) (A. flavus growth inhibition)” value with A. flavus (50 µM) is on record as 91,0%; in the assay with A. flavus (100 µM) it was 80,0%. For the compound “Cu(II) 2‐isopropyl benzaldehyde‐2‐methyl‐thiosemicarbazone di acetate”, the “A.I. (%) (aflatoxin accumulation inhibition)” value in assay [1] (50 µM) was 71,4%; in assay [1] (100 µM), 86,7%. Besides, the “G.I. (%) (A. flavus growth inhibition)” value in the assay on A. flavus (50 µM) is given as 90,0%; in the assay with A. flavus (100 µM) it was 95%.

Consider “Cu(II) 2‐isopropylbenzaldehyde bisthiosemicarbazonate”, for which the “A.I. (%) (aflatoxin accumulation inhibition)” value is reported as 65,9% in assay [1] (50 µM) and 80,8% in assay [1] (100 µM). Consider “Cu(II) 3,4,5‐trimethoxybenzaldehyde bisthiosemicarbazonate”, for which, in assay [1] (100 µM), the “A.I. (%) (aflatoxin accumulation inhibition)” value is given as 76,0%. Also, the “G.I. (%) (A. flavus growth inhibition)” value in the assay on A. flavus (100 µM) is reported as 54,0%. In the case of “Cu(II) 3,4‐dimethoxybenzaldehyde bis 4,4'‐dimethyl thiosemicarbazonate”, the figures for the “A.I. (%) (aflatoxin accumulation inhibition)” value in assay [1] (50 µM) and in assay [1] (100 µM) were 61,4% and 84,6%, respectively. In the case of “Cu(II) 3‐phenylpropanal bisthiosemicarbazonate”, the “G.I. (%) (A. flavus growth inhibition)” value with A. flavus (50 µM) is 69,0%; in the assay with A. flavus (100 µM) it was 68,0%. The corresponding values for “Cu(II) 4,7'‐dihydroxyflavone bisthiosemicarbazonate” are 100% and 100%. Regarding “Cu(II) Camphorquinone bisthiosemicarbazonate”, the “A.I. (%) (aflatoxin accumulation inhibition)” value in assay [1] (100 µM) is 53,0%.

With “Cu(II) Dihydrojasmone bisthiosemicarbazonate”, the “A.I. (%) (aflatoxin accumulation inhibition)” value in assay [1] (50 µM) is given as 66,0%; in assay [1] (100 µM), 80,0%. Consider “Cu(II) Quinolinecarboxaldehyde bisthiosemicarbazonate”, for which the “A.I. (%) (aflatoxin accumulation inhibition)” value is 55,7% in assay [1] (50 µM) and 88,0 in assay [1] (100 µM). The “G.I. (%) (A. flavus growth inhibition)” value with A. flavus (100 µM) is 60,7%. As to “Cu(II) benzaldehyde 4,4'‐dimethyl thiosemicarbazonate”, in assay [1] (100 µM), the “A.I. (%) (aflatoxin accumulation inhibition)” value was 67,0%. On to “Cu(II) cinnamaldehyde bisthiosemicarbazonate”, for which, in the assay with A. flavus (50 µM), the “G.I. (%) (A. flavus growth inhibition)” value is 58,0%. As to Cu(II) heptanal bisthiosemicarbazonate, the “A.I. (%) (aflatoxin accumulation inhibition)” value in assay [1] (50 µM) is given as 62,8%; in assay [1] (100 µM) it was 85,5%. For the compound Dicyclohexanone thiosemicarbazone, the “G.I. (%) (A. flavus growth inhibition)” value was 90,0% in the assay on A. flavus (50 µM) and 99,00% in the assay on A. flavus (100 µM). For the compound “Ni(II) perillaldehyde bisthiosemicarbazonate”, the “A.I. (%) (aflatoxin accumulation inhibition)” value in assay [1] (50 µM) is recorded as 85,2%; in assay [1] (100 µM) it was 90,1%. Consider “Zn(II) 1‐isopropylbenzaldehyde bis thiosemicarbazone diacetate”, for which the “A.I. (%) (aflatoxin accumulation inhibition)” value in assay [1] (50 µM) is listed as 69,3%; in assay [1] (100 µM) it was 81,9%. Turning to “Zn(II) 1‐isopropylbenzaldehyde bisthiosemicarbazonate”, the results for the “A.I. (%) (aflatoxin accumulation inhibition)” value in assay [1] (50 µM) and in assay [1] (100 µM) were 55,3% and 100%, respectively.

For “Zn(II) 2‐isopropylbenzaldehyde bisthiosemicarbazonate”, the results for the “A.I. (%) (aflatoxin accumulation inhibition)” value in assay [1] (50 µM) and in assay [1] (100 µM) were 93,8% and 100%, respectively. Regarding “Zn(II) (E)‐1‐(4‐methoxyphenyl)‐1‐pentene‐3‐one‐bis 3‐thiosemicarbazonate”, the “G.I. (%) (A. flavus growth inhibition)” value is listed as 86,0% with A. flavus (50 µM) and 89,0% in the assay with A. flavus (100 µM).
